The numbers were not newly measured in paper PMC5669518 (Biochemistry and Biophysics Reports, 2015), which cites them from elsewhere.

The structures appear in SMILES notation.

For this data set, the system named is NEU2. Conditions: active form of oseltamivir; ref [16], [17].

`CCOC(=O)C1=C[C@@H](OC(CC)CC)[C@H](NC(C)=O)[C@@H](N)C1` [oseltamivir]: the “Inhibitory effect on NEU2” value is “does not exhibit the inhibitory effect”.
